Assay results reported in patent publication US9689042B2, “Use of glycolytic pathways for inhibiting or measuring oncogenic signaling” (The Regents of the University of California, priority 2012, dated 2017).
Entries after “also recorded” stand apart in the source; their conditions may differ. d = 2'-deoxy (DNA); r = 2'-OH (RNA)

Key:
T4-2 cells [1] = details: for phenotypic reversion of the malignant phenotype / basal polarity / organized acinar structures / growth / proliferation (cell numbers at the colony mid-section, EdU incorporation) / rescue of the malignant (disorganized) phenotype by supplementation: 3D lrECM; for phenotypic reversion of the malignant phenotype: 2DG 4 mM, IA 20 μM, OX 50 mM, Azs 20 μM, DON 20 μM, BADGP 5 mM, TM 10 ng/ml, OGM 4 ng/ml, Rapa 0.01-1.0 μM; for basal polarity / organized acinar structures / growth / proliferation (cell numbers at the colony mid-section, EdU incorporation): same inhibitor concentrations as E1; for rescue of the malignant (disorganized) phenotype by supplementation: T4-2 cells reverted by IA 20 μM or 1.75 mM glucose, PEP 0.5 mM, pyruvate
Method: (§1) HMT-3522 cells were cultured on tissue culture plastic (2D) and in 3D lrECM gels with H14 medium, a 1:1 mix of DMEM/F12 (UCSF Cell Culture Facility) supplemented with 250 ng/ml insulin, 10 μg/ml transferrin, 2.6 ng/ml sodium selenite, 0.1 nM β-estradiol, 1.4 μM hydrocortisone and 5 μg/ml prolactin but no serum. S1 cells were additionally supplemented with 10 ng/ml EGF. MDA-MB-231 and HCC70 cells were cultured in DMEM and RPMI1640, respectively, and were supplemented with 10% fetal bovine serum (FBS).
(§2) For 3D lrECM cultures, S1 and T4-2 cells were seeded at 840,000 and 600,000 cells per cm3 respectively in lrECM gel (Cultrex), overlaid with H14 medium. MDA-MB-231 and HCC70 cells were seeded at 625,000 cell per cm3 and overlaid with H14 medium supplemented with 1% FBS. Cells were used for each assay after 10 days, unless otherwise indicated.
Pieces of lrECM gel containing cell colonies were suspended in approximately the same volume of phosphate buffered saline (PBS) and directly spread on glass slides. After brief air-drying, colonies were fixed with 3.7% paraformaldehyde (PFA) in PBS at room temperature (RT) for 10 min, washed with PBS containing 0.1 mM glycine, and permeabilized with 1:1 methanol/acetone at −20° C. for 10 min. After blocking with IF buffer (0.2% Triton X-100, 0.1% BSA [radioimmunoassay grade], 0.05% Tween 20, 7.7 mM NaN3 in PBS) containing 10% goat serum and 1% goat F(ab′)2 anti-mouse immunoglobulin G (IgG; Caltag) at RT for 30 min, colonies were stained with anti-α6 integrin antibody (Chemicon International) at 4° C. overnight. Colonies were washed extensively with IF buffer, and stained with Alexa 568-labeled anti-rat IgG antibody at RT for 2 hr. Colonies were washed with IF buffer again, and nuclei were stained with DAPI at RT for 10 min. Slides were briefly washed with PBS and mounted with 50% glycerol in PBS.
To test whether increased glucose metabolism itself is required for oncogenic signaling events, we utilized 3D lrECM cultures of HMT-3522, a breast cancer progression series which includes non-malignant (S1) and malignant (T4-2) human breast epithelial cells from the same individual (Briand et al., 1987; Petersen et al., 1992; Rizki et al., 2008). Using these cells, we have described the involvement and reciprocity of multiple signaling pathways including EGFR, β1 integrin, PI3K-Akt and MEK-ERK in oncogenic events (Beliveau et al., 2010; Bissell et al., 2005). […] We thus used this “phenotypic reversion” of the cancer cells as an assay to examine how the signaling integration plan of the breast acini could involve glucose metabolism.

T4-2 cells [2] = assay: Glucose uptake assay (IRDye800CW-2DG) in 3D lrECM; type: cell-based, human
Method: (§3) Cells suspended in 200 μl lrECM were seeded in 12 well glass-bottom plates (14 mm diameter; MatTek Corporation). Gels were overlaid with 500 μl H14 media and cultured for 10 days before each assay unless otherwise described.
For glucose uptake assay, cells were incubated with 1 μM of IRDye800CW-2DG (LI-COR Biosciences) for 1 hour, fixed within gels with 4% paraformaldehyde (PFA) in PBS for 30 min. and stained with DRAQ5 (1:10000 dilution), an infrared dye that binds stoichiometrically to DNA, for 30 min. Cells were extensively washed with PBS, then IRDye800-2DG uptake together with DRAQ5 staining were measured by using Odyssey Infrared Imaging System (LI-COR Biosciences).
(§4) In each assay, one well, containing only lrECM, was made for background measurements. Glucose uptake measured by 2DG uptake, lactate production and MitoTracker staining were normalized using total DNA levels, and presented relative to that of control (either S1 or non-treated T4-2 cells).

T4-2 cells [3] = assay: Lactate production assay in 3D lrECM; type: cell-based, human
Method: as §3
For lactate production, on day 9, conditioned-media were harvested to measure lactate remaining in the 200 μl of the gel (assuming equilibrium between medium and gel, C0 nmol/μl). […] After 24 hours, total culture medium was harvested for measurement of final lactate concentrations (C nmol/μl) and total volumes (V μl) of the conditioned-media, and the cells in gel were fixed with PFA as above. Concentration of lactate in each sample was measured using a lactate assay kit (BioVision). Net lactate production within 24 hours (N) was calculated as follows: N=C×(V+200)−C0×200. Fixed cells were stained with DRAQ5, to measure total level of DNA as a surrogate for number of cells, and the staining was measured as above.
as §4

T4-2 cells [4] = assay: Mitochondrial activity (MitoTracker oxidation) assay in 3D lrECM; type: cell-based, human
Method: as §3
For mitochondrial activity, we slightly modified the method described previously (Morici et al., 2007). Briefly, cells were incubated with 2 μM MitoTracker® Orange CM-H2 TMRos (Invitrogen) for 1 hour and fixed with PFA as above. Cells were counterstained with Hoechst 33342 (Invitrogen), which is known also to bind to DNA stoichiometrically, then MitoTracker and Hoechst staining were measured by taking z-section images from top to bottom of the gels using confocal microscopy.
as §4

[5] = test system: EGFR, β1 integrin, Akt, MEK, GLUT3, glycolytic enzymes in T4-2 cells; assay: Western blots of signaling intermediates, GLUT3 and metabolic enzymes in 3D lrECM cultures of T4-2 cells; type: cell-based, human; details: 3D lrECM; for recovery of β1 integrin expression and Akt activity by supplementation: T4-2 cells reverted by IA 20 μM or 1.75 mM glucose, PEP 0.5 mM, ESCA 20 μM
Method: Cell colonies were separated from lrECM gels by shaking in PBS containing 5 mM EDTA and the proteinase inhibitor cocktail set I (Calbiochem) on ice for 30 min. Cells were lysed in lysis buffer (1% NP-40, 1% deoxycholate, 2% SDS, 150 mM NaCl, 20 mM Tris-HCl [pH 7.4] plus 5 mM EDTA and protease inhibitor cocktail set I and phosphatase inhibitor cocktail set I [Calbiochem]) and sonicated three times for 30 sec each. Proteins were separated by SDS-PAGE, transferred to nitrocellulose membranes, and probed with antibodies against the following proteins: phosphorylated MEK, MEK, phosphorylated Akt, Akt, phosphorylated AMPK, AMPK, p70S6K, phosphorylated p70S6K, CHOP, EPAC1 (Cell Signaling), β1 integrin, EGFR, activated EGFR, HIF-1α, (Chemicon International), PFKP (Abgent), GAPDH, GLUT3 (GeneTex), LDHA, PDHE1α, DLAT, DLD, HIF-3α, Rap1, sAC, EPAC2, OGT, Lamin A/C (Santa Cruz Biotechnology), Aldolase (Polysciences), GFPT (ProteinTech Group), HIF-2α (Abcam), and HA-tag (Covance). After probing with HRP-conjugated secondary antibodies, blots were developed using SuperSignal West Femto chemiluminescence reagent (Pierce Biotechnology). Images were captured using Fluor Chem 8900 imager (Alpha Innotech).

T4-2 cells [6] = assay: siRNA knockdown in T4-2 cells cultured in 3D-on top (3D-OT) lrECM; type: cell-based, human; details: 3 days
Method: For experiments that need to be done in shorter-term (e.g. cultures of siRNA-transfected cells or for live imaging), cells were seeded at 60,000 cells per cm2 on top (3D-OT) of lrECM gels overlaid with H14 medium containing 5% (v/v) lrECM. Cells were harvested after 3 days.
Predesigned siRNA duplexes targeting GLUT3, GFPT1, GFPT2 and OGT, as well as control siRNA were obtained from Ambion. The other siRNA duplexes were chemically synthesized and purchased from Hokkaido System Science. The sequences are as follows:
For transfection of each siRNA into T4-2 cells, Lipofectamine RNAi MAX (Invitrogen) was used, according to the manufacturer's instruction. Cells were trypsinized 36 hrs after transfection and cultured in 3D-OT lrECM for 3 days before harvest.

Rap1 = assay: Measurement of Rap1 activity (GST-RalGDS-RBD pull-down) in T4-2 cells; type: cell-based, human; details: T4-2 cells treated with IA 20 μM or 1.75 mM glucose; PEP 0.5 mM, ESCA 20 μM
Method: Rap1 activity was measured as described previously (Itoh et al., 2007). Briefly, cell colonies were extracted from lrECM as described above, and lysed in lysis buffer (50 mM Tris-HCl [pH 7.4], 500 mM NaCl, 1% NP40, 2.5 mM MgCl2, 10% glycerol, 10 μg/ml aprotinin and 10 μg/ml leupeptin) at 4° C. for 30 min. Lysates were cleared by centrifugation at 15,000×g at 4° C. for 15 min. Supernatants (containing 300 μg protein in 300 μl) were incubated with 15 μg of GST-tagged RalGDS-RBD fusion protein immobilized on Glutathione Sepharose 4B beads (GE Healthcare), at 4° C. for 1 hr. Beads were washed trice in lysis buffer and resuspended in Laemmli buffer. Samples were separated by SDS-PAGE, followed by transfer to polyvinylidene fluoride membranes (0.2 μm pore) and immunoblotting using anti-Rap1 antibody.

S1 cells = assay: 3D lrECM culture of non-malignant S1 cells: acinar morphology and growth; type: cell-based, human; details: 2DG 4 mM, OGM 4 ng/ml
Method: as §1, §2
Pieces of lrECM gel containing cell colonies were suspended in approximately the same volume of phosphate buffered saline (PBS) and directly spread on glass slides. After brief air-drying, colonies were fixed with 3.7% paraformaldehyde (PFA) in PBS at room temperature (RT) for 10 min, washed with PBS containing 0.1 mM glycine, and permeabilized with 1:1 methanol/acetone at −20° C. for 10 min. […]

## [N-]=[N+]=CC(=O)OC[C@H](N)C(=O)O [AZS, Azaserine]
T4-2 cells [1]; T4-2 cells
  phenotypic reversion of the malignant phenotype: do induce phenotypic reversion; also recorded: induced the repertoire of the reversion phenotype
  basal polarity / organized acinar structures: re-establishment of tissue polarity
  growth / proliferation (cell numbers at the colony mid-section, EdU incorporation): growth arrest
T4-2 cells [2]
  glucose uptake: significantly down-regulated
T4-2 cells [3]
  lactate production: significantly down-regulated
T4-2 cells [4]
  mitochondrial activity (oxidation): remained unaltered
[5]; T4-2 cells, Western blot
  levels and/or activities of EGFR, β1 integrin, Akt and MEK (oncogenic signaling): suppression of activation of oncogenic signaling
[5]; T4-2 cells, Azs 20 μM, DON 20 μM
  EGFR expression and activity: significantly down-regulated

## Tunicamycin [TM]
T4-2 cells [1]; T4-2 cells
  phenotypic reversion of the malignant phenotype: do not induce phenotypic reversion; also recorded: did not lead to phenotypic reversion
T4-2 cells [1]; T4-2 cells, increasing amounts of tunicamycin (data not shown)
  cell death: induced significant cell death

## CC(Sc1nc2ccccc2[nH]1)C(=O)N/N=C/c1cc(Br)ccc1O (centres unmarked) [KH7]
T4-2 cells [1]; T4-2 cells reverted in 1.75 mM glucose, then 5.5 mM glucose with KH7
  reactivation (disorganization, Rap1, β1 integrin and Akt) on raising glucose from 1.75 mM to 5.5 mM: almost completely abolished
T4-2 cells [1]; T4-2 cells
  phenotypic reversion of the malignant phenotype: do induce phenotypic reversion

## GAPDH siRNA: chemically synthesized siRNA duplex targeting GAPDH, SEQ ID NO: 1 and SEQ ID NO: 2 (chain 1 GAGCCACAUCGCUCAGACA; chain 2 UGUCUGAGCGAUGUGGCUC; listed as RNA, chemistry not fully specified)
T4-2 cells [6]
  phenotype after siRNA knockdown (reversion): essentially reproduced the above results

## C=C(OP(=O)(O)O)C(=O)O [PEP, phosphoenolpyruvate]
T4-2 cells [1]; ESCA 20 μM
  rescue of the malignant (disorganized) phenotype by supplementation: reproduced the disorganized structure
Rap1
  Rap1 reactivation by supplementation: Rap1 reactivation
[5]
  recovery of β1 integrin expression and Akt activity by supplementation: partially recovered

## CO[C@@H]1[C@@H]2OP(=O)(O)OC[C@H]2O[C@H]1n1c(Sc2ccc(Cl)cc2)nc2c(N)ncnc21 [ESCA, 8CPT-2′-OMe-cAMP]
T4-2 cells [1]; ESCA 20 μM
  rescue of the malignant (disorganized) phenotype by supplementation: loss of tissue polarity
T4-2 cells [1]; T4-2 cells treated with IA 20 μM or 1.75 mM glucose, ESCA 20 μM
  restoration of proliferation by supplementation: did not restore proliferation to the level of non-treated cultures
Rap1
  Rap1 reactivation by supplementation: reactivated Rap1
[5]
  recovery of β1 integrin expression and Akt activity by supplementation: partially restored

## CC(=O)N[C@H]1[C@@H](OCc2ccccc2)O[C@H](CO)[C@H](O)[C@@H]1O [BADGP, Benzyl-2-acetamido-2-deoxy-α-D-galactopyranoside]
T4-2 cells [1]; T4-2 cells
  phenotypic reversion of the malignant phenotype: do induce phenotypic reversion; also recorded: induced phenotypic reversion

## CC[C@H]1/C=C/C=C/C[C@@H](C)[C@H](O)[C@@](C)(O)C(=O)[C@@H](C)[C@H](O)[C@@H](C)C(=O)[C@@H](C)[C@H](O)[C@@H](C)/C=C/C(=O)O[C@@H]2[C@H](C)[C@H](CC1)O[C@]1(CC[C@H](C)[C@H](C[C@@H](C)O)O1)[C@H]2C [OGM, Oligomycin]
T4-2 cells [1]; T4-2 cells
  phenotypic reversion of the malignant phenotype: do not induce phenotypic reversion
  basal polarity / organized acinar structures: did not induce organized structures
  growth / proliferation (cell numbers at the colony mid-section, EdU incorporation): suppressing proliferation significantly
S1 cells
  acinar morphology, basal polarity and growth rate of non-malignant cells: lost basal tissue polarity

## sAC siRNA: chemically synthesized siRNA duplex targeting sAC, SEQ ID NO: 7 and SEQ ID NO: 8 (chain 1 AUGUAGCCUGGAGAUCCAUTT; chain 2 AUGGAUCUCCAGGCUACAUTT; sugars from the 5' end r19 d2, backbone not given here)
T4-2 cells [6]
  phenotype after siRNA knockdown (reversion): induced phenotypic reversion
